Columns and labels:
Format in all cases: in vivo
[1] = system: Echinochloa oryzacola Vasing.; test: Test Example 1: herbicidal activity, application before weed generation in submerged conditions (symbol A); details: application herbicide amount 320 g/ha
Summary of the method: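 Application before weed emergence: an aqueous dilution of the emulsion formulation was poured onto the surface of 4 cm-deep floodwater on the day of sowing. Effect was judged after 3 weeks (greenhouse, 25–30 °C).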

Stellaria media = test: Test Example 5: herbicidal effect by foliage application, plastic box (symbol P); details: 320 g/ha, 3 weeks after application
Summary of the method: (§1)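 Leaf-applied emulsion, water-diluted to a preset herbicide dose, on two-week-old seedlings raised in a 25° C. to 30° C. greenhouse; injury rated at 3 weeks using earlier criteria.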

Amaranthus retroflexus = test: Test Example 4: herbicidal effect by soil treatment (symbol N); details: for N: Amaranthus retroflexus, herbicidal effect grade: 320 g/ha
Summary of the method: (§2)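 Seeds were sown in sterilized diluvial soil, covered with about 1.5 cm of soil, and the soil surface was sprayed with a water-diluted emulsion of the compound at a predetermined rate. Plants grew in a greenhouse at 25° C. to 30° C.; effects were scored visually 3 weeks after application.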

rice plant = test: Test Example 5: effect on crop by foliage application, plastic box (symbol b); details: 320 g/ha, 3 weeks after application
Summary of the method: (§3)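 Greenhouse test at 25° C. to 30° C. Seeds of crops and weeds were spot-sown in boxes of sterilized diluvial soil under roughly 1.5 cm soil cover, then grown for foliage treatment.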

[2] = system: Echinochloa crus-galli var. crus-galli; test: Test Example 3: herbicidal effect by foliage application, Wagner pot (symbol H); details: application herbicide amount 320 g/ha
Summary of the method: (§4)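 Foliar spray of a water-diluted emulsion at a predetermined herbicide amount, applied to 14-day-old plants. Seedlings were raised in flooded alluvial soil (0.1–0.5 cm water) at 25–30 °C in a greenhouse. Injury was rated after 3 weeks against fixed criteria.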

Apera spica-venti [3] = test: Test Example 4: herbicidal effect by soil treatment (symbol L); details: for L: Apera spica-venti, herbicidal effect grade: 320 g/ha
Summary of the method: as §2

Cyperus difformis = test: Test Example 3: herbicidal effect by foliage application, Wagner pot (symbol E); details: application herbicide amount 320 g/ha
Summary of the method: as §4

beet = test: Test Example 5: effect on crop by foliage application, plastic box (symbol f); details: 320 g/ha, 3 weeks after application
Summary of the method: as §3

soybean = test: Test Example 5: effect on crop by foliage application, plastic box (symbol d); details: 320 g/ha, 3 weeks after application
Summary of the method: as §3

Setaria viridis = test: Test Example 5: herbicidal effect by foliage application, plastic box (symbol G); details: 320 g/ha, 3 weeks after application
Summary of the method: as §1

[4] = system: Echinochloa oryzacola Vasing.; test: Test Example 2: herbicidal activity, application during weed generation in submerged conditions (symbol A); details: Table 23; application herbicide amount 320 g/ha; grade 0-5 by criteria of Test Example 1
Summary of the method: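 Scoring of herbicidal effect took place 3 weeks after treatment, using the criteria of the earlier test. Treatment was water-surface application of diluted emulsifiable compound at a set dose. Plants were at one- to two-leaf stage in submerged alluvial soil (4 cm depth), greenhouse 25-30° C.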

[5] = system: Echinochloa crus-galli var. crus-galli; test: Test Example 4: herbicidal effect by soil treatment (symbol H); details: for H: Echinochloa crus-galli var. crus-galli, herbicidal effect grade: 320 g/ha
Summary of the method: as §2

Apera spica-venti [6] = test: Test Example 5: herbicidal effect by foliage application, plastic box (symbol L); details: 320 g/ha, 3 weeks after application
Summary of the method: as §1

[7] = application herbicide amount 320 g/ha

Row | Compound | Herbicidal effect grade, A: Echinochloa oryzacola Vasing. [1] | P: Stellaria media, herbicidal effect grade (Stellaria media) | N (Amaranthus retroflexus) herbicidal effect grade (Amaranthus retroflexus; [7]) | b: directly sowed rice plant, effect on crop grade (rice plant) | herbicidal effect on H (Echinochloa crus-galli var. crus-galli), grade 0-5 [2] | L (Apera spica-venti) herbicidal effect grade (Apera spica-venti [3]; [7]) | herbicidal effect on E, grade 0-5 (Cyperus difformis) | f: beet, effect on crop grade (beet) | d: soybean, effect on crop grade (soybean) | G: Setaria viridis, herbicidal effect grade (Setaria viridis) | Herbicidal effect grade, A: Echinochloa oryzacola Vasing. [4] | H (Echinochloa crus-galli var. crus-galli) herbicidal effect grade [5, 7] | L: Apera spica-venti, herbicidal effect grade (Apera spica-venti [6]) | P: Stellaria media, herbicidal effect (criteria 0-5) (Stellaria media) | N: Amaranthus retroflexus, herbicidal effect grade (Amaranthus retroflexus) | b: directly sowed rice plant, effect on crop (criteria 0-5) (rice plant) | L: Apera spica-venti, herbicidal effect grade (Apera spica-venti [3]) | f: beet, effect on crop (criteria 0-5) (beet) | d: soybean, effect on crop (criteria 0-5) (soybean) | G: Setaria viridis, herbicidal effect (criteria 0-5) (Setaria viridis) | other results
1 | CCCC(CC1CC(O)=C(c2c(C)cc(C)cc2C)C1=O)=NOC (stereo not drawn) [1-062] | 5 (Herbicidal ratio of 90% or more (almost completely withered)) | 0 (Herbicidal ratio of 5% or lower (almost no effect)) | 0 (Herbicidal ratio of 5% or lower (almost no effect)) | 5 (Herbicidal ratio of 90% or more (almost completely withered)) | 4 (Herbicidal ratio of 70% or higher and lower than 90%) | 4 (Herbicidal ratio of 70% or higher and lower than 90%) | 4 (Herbicidal ratio of 70% or higher and lower than 90%) | 0 (Herbicidal ratio of 5% or lower (almost no effect)) | 0 (Herbicidal ratio of 5% or lower (almost no effect)) | 4 (Herbicidal ratio of 70% or higher and lower than 90%) | 3 (Herbicidal ratio of 40% or higher and lower than 70%) | 5 (Herbicidal ratio of 90% or more (almost completely withered)) | 5 (Herbicidal ratio of 90% or more (almost completely withered)) | – | – | – | – | – | – | – | –
2 | COCCON=C(C)CC1CC(O)=C(c2c(C)cc(C)cc2C)C1=O (stereo not drawn) [1-041] | 5 (Herbicidal ratio of 90% or more (almost completely withered)) | 3 (Herbicidal ratio of 40% or higher and lower than 70%) | 3 (Herbicidal ratio of 40% or higher and lower than 70%) | 5 (Herbicidal ratio of 90% or more (almost completely withered)) | 5 (Herbicidal ratio of 90% or more (almost completely withered)) | 5 (Herbicidal ratio of 90% or more (almost completely withered)) | 5 (Herbicidal ratio of 90% or more (almost completely withered)) | 1 (Herbicidal ratio of 5% or higher and lower than 20%) | 4 (Herbicidal ratio of 70% or higher and lower than 90%) | 5 (Herbicidal ratio of 90% or more (almost completely withered)) | 5 (Herbicidal ratio of 90% or more (almost completely withered)) | 5 (Herbicidal ratio of 90% or more (almost completely withered)) | 5 (Herbicidal ratio of 90% or more (almost completely withered)) | – | – | – | – | – | – | – | –
3 | CON=C(CC1CC(O)=C(c2c(C)cc(Br)cc2C)C1=O)C(C)C (stereo not drawn) [9-001] | 4 (Herbicidal ratio of 70% or higher and lower than 90%) | 0 (Herbicidal ratio of 5% or lower (almost no effect)) | – | 3 (Herbicidal ratio of 40% or higher and lower than 70%) | – | – | – | 0 (Herbicidal ratio of 5% or lower (almost no effect)) | 0 (Herbicidal ratio of 5% or lower (almost no effect)) | 4 (Herbicidal ratio of 70% or higher and lower than 90%) | 4 (Herbicidal ratio of 70% or higher and lower than 90%) | – | 3 (Herbicidal ratio of 40% or higher and lower than 70%) | – | – | – | – | – | – | – | Herbicidal effect grade, N: Amaranthus retroflexus (Amaranthus retroflexus; [7]): 1 (Herbicidal ratio of 5% or higher and lower than 20%); H (Echinochloa crus-galli var. crus-galli) herbicidal effect grade ([2]; Table 24): 5 (Herbicidal ratio of 90% or more (almost completely withered)); Herbicidal effect grade, L: Apera spica-venti (Apera spica-venti [3]; [7]): 4 (Herbicidal ratio of 70% or higher and lower than 90%); E herbicidal effect grade (Cyperus difformis; Table 24): 2 (Herbicidal ratio of 20% or higher and lower than 40%); Herbicidal effect grade, H: Echinochloa crus-galli var. crus-galli [5, 7]: 5 (Herbicidal ratio of 90% or more (almost completely withered))
4 | CON=C(CC1CC(OC(=O)COc2ccccc2)=C(c2c(C)cc(C)cc2C)C1=O)C1CC1 (stereo not drawn) [1-063] | 5 (Herbicidal ratio of 90% or more (almost completely withered)) | 0 (Herbicidal ratio of 5% or lower (almost no effect)) | 0 (Herbicidal ratio of 5% or lower (almost no effect)) | 5 (Herbicidal ratio of 90% or more (almost completely withered)) | 5 (Herbicidal ratio of 90% or more (almost completely withered)) | 5 (Herbicidal ratio of 90% or more (almost completely withered)) | 5 (Herbicidal ratio of 90% or more (almost completely withered)) | 0 (Herbicidal ratio of 5% or lower (almost no effect)) | 3 (Herbicidal ratio of 40% or higher and lower than 70%) | 5 (Herbicidal ratio of 90% or more (almost completely withered)) | 4 (Herbicidal ratio of 70% or higher and lower than 90%) | 5 (Herbicidal ratio of 90% or more (almost completely withered)) | 5 (Herbicidal ratio of 90% or more (almost completely withered)) | – | – | – | – | – | – | – | –
5 | CON=C(C)CC1CC(OC(=O)C(C)Oc2ccc(Oc3cnc4cc(Cl)ccc4n3)cc2)=C(c2c(C)cc(C)cc2C)C1=O (stereo not drawn) [1-087] | 5 (Herbicidal ratio of 90% or more (almost completely withered)) | – | – | – | 5 (Herbicidal ratio of 90% or more (almost completely withered)) | – | 5 (Herbicidal ratio of 90% or more (almost completely withered)) | – | – | – | 5 (Herbicidal ratio of 90% or more (almost completely withered)) | – | – | 3 (Herbicidal ratio of 40% or higher and lower than 70%) | 5 (Herbicidal ratio of 90% or more (almost completely withered)) | 5 (Herbicidal ratio of 90% or more (almost completely withered)) | 5 (Herbicidal ratio of 90% or more (almost completely withered)) | 4 (Herbicidal ratio of 70% or higher and lower than 90%) | 3 (Herbicidal ratio of 40% or higher and lower than 70%) | 5 (Herbicidal ratio of 90% or more (almost completely withered)) | H: Echinochloa crus-galli var. crus-galli, herbicidal effect grade [5]: 5 (Herbicidal ratio of 90% or more (almost completely withered)); L: Apera spica-venti, herbicidal effect (criteria 0-5) (Apera spica-venti [6]): 5 (Herbicidal ratio of 90% or more (almost completely withered))
6 | C=CC(CC1CC(O)=C(c2c(C)cc(C)cc2C)C1=O)=NOC (stereo not drawn) [1-086] | 5 (Herbicidal ratio of 90% or more (almost completely withered)) | – | – | – | 5 (Herbicidal ratio of 90% or more (almost completely withered)) | – | 4 (Herbicidal ratio of 70% or higher and lower than 90%) | – | – | – | 5 (Herbicidal ratio of 90% or more (almost completely withered)) | – | – | 0 (Herbicidal ratio of 5% or lower (almost no effect)) | 0 (Herbicidal ratio of 5% or lower (almost no effect)) | 4 (Herbicidal ratio of 70% or higher and lower than 90%) | 3 (Herbicidal ratio of 40% or higher and lower than 70%) | 0 (Herbicidal ratio of 5% or lower (almost no effect)) | 0 (Herbicidal ratio of 5% or lower (almost no effect)) | 3 (Herbicidal ratio of 40% or higher and lower than 70%) | H: Echinochloa crus-galli var. crus-galli, herbicidal effect grade [5]: 1 (Herbicidal ratio of 5% or higher and lower than 20%); L: Apera spica-venti, herbicidal effect (criteria 0-5) (Apera spica-venti [6]): 4 (Herbicidal ratio of 70% or higher and lower than 90%)

From patent US11000033B2, “Ketone or oxime compound, and herbicide” (NISSAN CHEMICAL CORPORATION, priority 2014, dated 2021)
